Laboratory results published in ChEMBL document CHEMBL1157821, “In vitro photodynamic therapy and quantitative structure-activity relationship studies with stable synthetic near-infrared-absorbing bacteriochlorin photosensitizers” (J Med Chem, 2010).

Tested on: HeLa
Experiment: Photocytotoxicity against human HeLa cells assessed as survival-fraction per unit uptake measured as concentration in incubation medium necessary to produce cell uptake of 0.3 nmol per mg of protein at which survival fraction was determined after 24 hrs in presence of 10 J/cm2 light
Format: functional

## CC1(C)Cc2cc3[nH]c(cc4nc(cc5[nH]c(cc1n2)cc5C(=O)O)CC4(C)C)cc3C(=O)O
  survival fraction: 0.35

## CC1(C)Cc2cc3[nH]c(cc4nc(cc5[nH]c(cc1n2)cc5C(=O)NCCN)CC4(C)C)cc3C(=O)NCCN
  survival fraction: 0.88

## CC1(C)Cc2cc3[nH]c(cc4nc(cc5[nH]c(cc1n2)cc5CN(CCO)CCO)CC4(C)C)cc3CN(CCO)CCO
  survival fraction: 0.04

## COCCOCCOCCOCCNCc1cc(CNCCOCCOCCOCCOC)cc(-c2c3nc(cc4[nH]c(cc4-c4ccc(C)cc4)c(OC)c4nc(cc5[nH]c2cc5-c2ccc(C)cc2)C(C)(C)C4)C(C)(C)C3)c1
  survival fraction: 0.1

## CC1(C)Cc2cc3[nH]c(cc4nc(cc5[nH]c(cc1n2)cc5-c1cc(OCCO)cc(OCCO)c1)CC4(C)C)cc3-c1cc(OCCO)cc(OCCO)c1
  survival fraction: 0.001

## CC1(C)Cc2cc3[nH]c(cc4nc(cc5[nH]c(cc1n2)cc5-c1cc(O)cc(O)c1)CC4(C)C)cc3-c1cc(O)cc(O)c1
  survival fraction: 0.01

## CC1(C)Cc2cc3[nH]c(cc4nc(cc5[nH]c(cc1n2)cc5C#CC[N+](C)(C)C)CC4(C)C)cc3C#CC[N+](C)(C)C.[Cl-].[Cl-]
  survival fraction: 0.6

## CC1(C)Cc2cc3[nH]c(cc4nc(cc5[nH]c(cc1n2)cc5C(=O)N(CCN)CCN)CC4(C)C)cc3C(=O)N(CCN)CCN
  survival fraction: 0.9

## CC1(C)Cc2cc3[nH]c(cc4nc(cc5[nH]c(cc1n2)cc5C(=O)N1CC[N+](C)(C)CC1)CC4(C)C)cc3C(=O)N1CC[N+](C)(C)CC1.[Cl-].[Cl-]
  survival fraction: 1

## CC1(C)Cc2cc3[nH]c(cc4nc(cc5[nH]c(cc1n2)cc5C(=O)/C=C/c1cc(O)cc(O)c1)CC4(C)C)cc3C(=O)/C=C/c1cc(O)cc(O)c1
  survival fraction: 0.23

## COCCN(CCOC)C(=O)c1cc2cc3nc(cc4[nH]c(cc5nc(cc1[nH]2)CC5(C)C)cc4C(=O)N(CCOC)CCOC)CC3(C)C
  survival fraction: 0.02
